Like-named read-outs stand apart in the source and are kept apart here.
Tested on: cancer cells
Test: Survival rate of cancer cells after test compound is added (flow cytometry, Annexin V-FITC/PI, clinical specimen)
Format: cell-based, patient
Conditions: Homo sapiens, 18 h, read-out: Survival rate (%) All cells (Stem cells and ordinary cells)
Description: Take fresh or cryopreserved clinical specimen (acute myelogenous leukemia (AML, marker is CD34^+/CD38^+), chronic myelogenous leukemia (CML, Ph+/CD34+/CXCR4+), chronic lymphocytic leukemia (CLL,CD133+/CD19−/CD38−), skin cancer (CD34+), breast cancer (CD44+/CD24−/ESA+), ovarian cancer (CD44+/CD117+), brain tumor (CD133+) prostate cancer (CD44+/CD24−), head-neck squamous cell carcinoma (CD44+), laryngeal cancer (CD133+), pancreatic cancer (ESA+/CD44+/CD24+), retinoblastoma (ABCG2/ALDH1), Children hepatoblastoma (CD34+/THY1+/c-kit+), liver cancer (CD133+), malignant melanoma (CD133+), colorectal cancer (EpCAM^high/CD44+), colon adenocarcinoma (CD44^high), glioma (ABCG-2/BCRP1), gastrointestinal tumor (ABCG-2/BCRP1), nasopharynx cancer (ABCG2), brain glioma (Dlk-1/Pref-1), gastric cancer (CD45+), lung adenocarcinoma (Sca-1/CD45-/Pecam-/CD34+), lung cancer (CD133+CD34+CD44+)) of patient. Take the acute myelogenous leukemia as the example, conduct density gradient centrifugation with Ficoll and take out the middle mononuclear cells, re-suspend it with serum-free IMDM after centrifuged. Adjust the concentration of cells into 1×10^6/mL and lay 24-well plate with 1 mL in each well, and then treat 18 hours with the compound to select with corresponding concentration. Collect the cells and centrifuge them at 1500 rps for 8 minutes, re-suspend the precipitation with […], mark the antibodies related to leukemia stem cell, avoid light to incubate 30 minutes at room temperature and then centrifuge it at 1500 rps, then wash away the unbound antibody CD34^+CD38^+. Re-suspend it with 100 μl 1× Binding Buffer and add respectively 5 μl Annexin V-FITC and PI, then avoid light to incubate 15 minutes before add 200 μl 1× Binding Buffer, then use flow cytometry to examine the marked apoptosis within one hour.

[1] = Head and neck squamous cell carcinomas

## C=C1C(=O)O[C@H]2[C@H]1CCC(C)=C1CC[C@@](C)(OC(=O)CCCc3cn(CCCCCCO)nn3)[C@@H]12 [Compound 21]
AML
  viability at 10 µM: 75%
  viability at 20 µM: 56%
Brain glioma
  viability at 10 µM: 79%
  viability at 20 µM: 68%
Brain tumor
  viability at 10 µM: 75%
  viability at 20 µM: 62%
Breast cancer
  viability at 10 µM: 72%
  viability at 20 µM: 66%
CLL
  viability at 10 µM: 63%
  viability at 20 µM: 62%
CML
  viability at 10 µM: 82%
  viability at 20 µM: 69%
Children hepatoblastoma
  viability at 10 µM: 81%
  viability at 20 µM: 66%
Colon adenocarcinoma
  viability at 10 µM: 71%
  viability at 20 µM: 56%
Colorectal cancer
  viability at 10 µM: 78%
  viability at 20 µM: 67%
Gastric cancer
  viability at 10 µM: 67%
  viability at 20 µM: 55%
Gastrointestinal tumor
  viability at 10 µM: 75%
  viability at 20 µM: 58%
Glioma
  viability at 10 µM: 87%
  viability at 20 µM: 78%
[1]
  viability at 10 µM: 86%
  viability at 20 µM: 82%
Laryngeal cancer
  viability at 10 µM: 73%
  viability at 20 µM: 61%
Liver cancer
  viability at 10 µM: 77%
  viability at 20 µM: 61%
Lung adenocarcinoma
  viability at 10 µM: 67%
  viability at 20 µM: 64%
Lung cancer
  viability at 10 µM: 74%
  viability at 20 µM: 68%
Malignant melanoma
  viability at 10 µM: 69%
  viability at 20 µM: 56%
Nasopharynx cancer
  viability at 10 µM: 65%
  viability at 20 µM: 56%
Ovarian cancer
  viability at 10 µM: 64%
  viability at 20 µM: 57%
Pancreatic cancer
  viability at 10 µM: 66%
  viability at 20 µM: 62%
Prostate cancer
  viability at 10 µM: 77%
  viability at 20 µM: 65%
Retinoblastoma
  viability at 10 µM: 65%
  viability at 20 µM: 59%
Skin cancer
  viability at 10 µM: 64%
  viability at 20 µM: 57%

## C=C1C(=O)O[C@@H]2[C@H]3C(C)=CC[C@@]34O[C@@]4(C)CC[C@@H]12 [Compound 50]
AML
  viability at 10 µM: 57%
  viability at 20 µM: 47%
Brain glioma
  viability at 10 µM: 74%
  viability at 20 µM: 58%
Brain tumor
  viability at 10 µM: 72%
  viability at 20 µM: 63%
Breast cancer
  viability at 10 µM: 75%
  viability at 20 µM: 65%
CLL
  viability at 10 µM: 58%
  viability at 20 µM: 47%
CML
  viability at 10 µM: 64%
  viability at 20 µM: 58%
Children hepatoblastoma
  viability at 10 µM: 55%
  viability at 20 µM: 47%
Colon adenocarcinoma
  viability at 10 µM: 55%
  viability at 20 µM: 49%
Colorectal cancer
  viability at 10 µM: 76%
  viability at 20 µM: 66%
Gastric cancer
  viability at 10 µM: 54%
  viability at 20 µM: 48%
Gastrointestinal tumor
  viability at 10 µM: 64%
  viability at 20 µM: 53%
Glioma
  viability at 10 µM: 74%
  viability at 20 µM: 56%
[1]
  viability at 10 µM: 67%
  viability at 20 µM: 58%
Laryngeal cancer
  viability at 10 µM: 75%
  viability at 20 µM: 64%
Liver cancer
  viability at 10 µM: 66%
  viability at 20 µM: 54%
Lung adenocarcinoma
  viability at 10 µM: 57%
  viability at 20 µM: 47%
Lung cancer
  viability at 10 µM: 54%
  viability at 20 µM: 47%
Malignant melanoma
  viability at 10 µM: 82%
  viability at 20 µM: 66%
Nasopharynx cancer
  viability at 10 µM: 54%
  viability at 20 µM: 48%
Ovarian cancer
  viability at 10 µM: 77%
  viability at 20 µM: 67%
Pancreatic cancer
  viability at 10 µM: 64%
  viability at 20 µM: 49%
Prostate cancer
  viability at 10 µM: 66%
  viability at 20 µM: 54%
Retinoblastoma
  viability at 10 µM: 65%
  viability at 20 µM: 53%
Skin cancer
  viability at 10 µM: 66%
  viability at 20 µM: 58%

## C=C1C(=O)O[C@@H]2[C@@H]3[C@@H](CC[C@@]3(C)O)C(=C)CC[C@@H]12 [Compound 48]
AML
  viability at 10 µM: 59%
  viability at 20 µM: 48%
Brain glioma
  viability at 10 µM: 66%
  viability at 20 µM: 54%
Brain tumor
  viability at 10 µM: 78%
  viability at 20 µM: 69%
Breast cancer
  viability at 10 µM: 76%
  viability at 20 µM: 58%
CLL
  viability at 10 µM: 67%
  viability at 20 µM: 48%
CML
  viability at 10 µM: 69%
  viability at 20 µM: 51%
Children hepatoblastoma
  viability at 10 µM: 75%
  viability at 20 µM: 68%
Colon adenocarcinoma
  viability at 10 µM: 66%
  viability at 20 µM: 56%
Colorectal cancer
  viability at 10 µM: 79%
  viability at 20 µM: 67%
Gastric cancer
  viability at 10 µM: 66%
  viability at 20 µM: 48%
Gastrointestinal tumor
  viability at 10 µM: 73%
  viability at 20 µM: 62%
Glioma
  viability at 10 µM: 78%
  viability at 20 µM: 74%
[1]
  viability at 10 µM: 73%
  viability at 20 µM: 68%
Laryngeal cancer
  viability at 10 µM: 76%
  viability at 20 µM: 66%
Liver cancer
  viability at 10 µM: 82%
  viability at 20 µM: 73%
Lung adenocarcinoma
  viability at 10 µM: 77%
  viability at 20 µM: 64%
Lung cancer
  viability at 10 µM: 72%
  viability at 20 µM: 67%
Malignant melanoma
  viability at 10 µM: 88%
  viability at 20 µM: 86%
Nasopharynx cancer
  viability at 10 µM: 64%
  viability at 20 µM: 59%
Ovarian cancer
  viability at 10 µM: 68%
  viability at 20 µM: 61%
Pancreatic cancer
  viability at 10 µM: 68%
  viability at 20 µM: 62%
Prostate cancer
  viability at 10 µM: 75%
  viability at 20 µM: 62%
Retinoblastoma
  viability at 10 µM: 82%
  viability at 20 µM: 69%
Skin cancer
  viability at 10 µM: 62%
  viability at 20 µM: 47%

Reference: patent US10463644B2, “Uses of sesquiterpene lactone compounds and their derivatives in drugs preparation” (ACCENDATECH, priority 2013, dated 2019)
